Measured values taken from patent US8455658B2, “Thiazole and thiadiazole compounds for inflammation and immune-related uses” (Synta Pharmaceuticals Corp., priority 2006, dated 2013).
Where a name gives a salt, the structure may show the parent alone.

Tested on: IL-2 production
Assay: Inhibition of IL-2 production in PHA-activated Jurkat cells (ELISA)
Assay type: cell-based
Conditions: Homo sapiens, PHA 2.5 μg/mL, IL-2 ELISA
Procedure: Jurkat cells were placed in a 96 well plate (0.5 million cells per well in 1% FBS medium) then a test compound of this invention was added at different concentrations. After 10 minutes, the cells were activated with PHA (final concentration 2.5 μg/mL) and incubated for 20 hours at 37° C. under CO2. The final volume was 200 μL. Following incubation, the cells were centrifuged and the supernatants collected and stored at −70° C. prior to assaying for IL-2 production. A commercial ELISA kit (IL-2 Eli-pair, Diaclone Research, Besancon, France) was used to detect production of IL-2, from which dose response curves were obtained.

Row | SMILES | IC50 (Jurkat, 20 h) | IC50 (20 hours)
1 | COc1ccc(OC)c(-c2csc(NC(=O)c3c(F)cccc3F)n2)c1 [Compound 2, N-[4-(2,5-Dimethoxy-phenyl)-thiazol-2-yl]-2,6-difluoro-benzamide] | > 1000 nM | 
2 | C=CCOc1ccc(C(F)(F)F)cc1-c1cnc(NC(=O)c2c(F)cccc2F)s1 [Compound 65, N-(5-(2-(Allyloxy)-5-(trifluoromethyl)phenyl)thiazol-2-yl)-2,6-difluorobenzamide] | > 1000 nM | 
3 | O=C(Nc1nc(C2=NCCO2)c(-c2cccc(C(F)(F)F)c2)s1)c1c(F)cccc1F [Compound 89, N-(4-(4,5-dihydrooxazol-2-yl)-5-(3-(trifluoromethyl)phenyl)thiazol-2-yl)-2,6-difluorobenzamide] | 200 to 500 nM | 
4 | O=C(Nc1nc(C2=NCCN2)c(-c2cccc(C(F)(F)F)c2)s1)c1c(F)cccc1F [Compound 77, N-(4-(4,5-Dihydro-1H-imidazol-2-yl)-5-(3-(trifluoromethyl)phenyl)thiazol-2-yl)-2,6-difluorobenzamide] | > 1000 nM | 
5 | Cc1nc(NC(=O)c2c(F)cccc2F)sc1-c1ccncc1 [Compound 54, 2,6-Difluoro-N-(4-methyl-5-(pyridin-4-yl)thiazol-2-yl)benzamide hydrobromide] | > 1000 nM | 
6 | O=C(Nc1c(F)cccc1F)c1ncc(-c2cccc(-c3ncco3)c2)s1 [Compound 131, N-(2,6-difluorophenyl)-5-(3-(oxazol-2-yl)phenyl)thiazole-2-carboxamide] | 50 to 100 nM | 
7 | Cc1cnccc1C(=O)Nc1nc(C(=O)O)c(-c2cccc(C(F)(F)F)c2)s1 [Compound 112, 2-(3-Methylisonicotinamido)-5-(3-(trifluoromethyl)phenyl)thiazole-4-carboxylic acid] | > 1000 nM | 
8 | O=C(Nc1nc(C2CC2)c(-c2cccc(C(F)(F)F)c2)s1)c1c(F)cccc1F [Compound 52, N-(4-Cyclopropyl-5-(3-(trifluoromethyl)phenyl)thiazol-2-yl)-2,6-difluorobenzamide] | 50 to 100 nM | 
9 | O=C(Nc1nc(-c2nnco2)c(-c2cccc(C(F)(F)F)c2)s1)c1c(F)cccc1F [Compound 90, N-(4-(1,3,4-oxadiazol-2-yl)-5-(3-(trifluoromethyl)phenyl)thiazol-2-yl)-2,6-difluorobenzamide] | 200 to 500 nM | 
10 | Cc1nc(C)c(-c2nc(NC(=O)c3c(F)cccc3F)sc2-c2cccc(C(F)(F)F)c2)o1 [Compound 81, N-(4-(2,4-dimethyloxazol-5-yl)-5-(3-(trifluoromethyl)phenyl)thiazol-2-yl)-2,6-difluorobenzamide] | > 1000 nM | 
11 | C=Cc1nc(NC(=O)c2c(F)cccc2F)sc1-c1cccc(C(F)(F)F)c1 [Compound 75, 2,6-Difluoro-N-(5-(3-(trifluoromethyl)phenyl)-4-vinylthiazol-2-yl)benzamide] | 200 to 500 nM | 
12 | O=C(Nc1c(F)cccc1F)c1ncc(-c2cccc(C(F)(F)F)c2)s1 [Compound 130, N-(2,6-difluorophenyl)-5-(3-(trifluoromethyl)phenyl)thiazole-2-carboxamide] | 100 to 200 nM | 
13 | O=C(Nc1nnc(-c2cc(C(F)(F)F)ccc2Cl)s1)c1c(F)cccc1F [Compound 44, N-[5-(2-Chloro-5-trifluoromethyl-phenyl)-[1,3,4]thiadiazol-2-yl]-2,6-difluoro-benzamide] | > 1000 nM | 
14 | O=C(Nc1nc(/C=N\O)c(-c2cccc(C(F)(F)F)c2)s1)c1c(F)cccc1F [Compound 72, (Z)-2,6-difluoro-N-(4-((hydroxyimino)methyl)-5-(3-(trifluoromethyl)phenyl)thiazol-2-yl)benzamide] | > 1000 nM | 
15 | Cc1nc(NC(=O)c2c(F)cccc2F)sc1-c1cccc(C(F)(F)F)c1 [Compound 48, Sodium (2,6-difluorobenzoyl)(4-methyl-5-(3-(trifluoromethyl)phenyl)thiazol-2-yl)amide] |  | 50 to 100 nM
16 | N#Cc1nc(NC(=O)c2c(F)cccc2F)sc1-c1cccc(C(F)(F)F)c1 [Compound 73, N-(4-Cyano-5-(3-(trifluoromethyl)phenyl)thiazol-2-yl)-2,6-difluorobenzamide] | 200 to 500 nM | 
17 | CC(=O)c1nc(NC(=O)c2c(F)cccc2F)sc1-c1cccc(C(F)(F)F)c1 [Compound 84, N-(4-Acetyl-5-(3-(trifluoromethyl)phenyl)thiazol-2-yl)-2,6-difluorobenzamide] | 200 to 500 nM | 
18 | COc1ccc(-c2nc(NC(=O)c3c(F)cccc3F)sc2-c2cccc(C(F)(F)F)c2)cc1OC [Compound 109, N-(4-(3,4-Dimethoxyphenyl)-5-(3-(trifluoromethyl)phenyl)thiazol-2-yl)-2,6-difluorobenzamide] | > 1000 nM | 
19 | Cc1nc(NC(=O)c2c(F)cccc2F)sc1-c1cccc(C#N)c1 [Compound 13, N-[5-(3-Cyano-phenyl)-4-methyl-thiazol-2-yl]-2,6-difluoro-benzamide] | 100 to 200 nM | 
20 | O=C(Nc1ncc(-c2cc(C(F)(F)F)ccc2Cl)s1)c1c(F)cccc1F [Compound 4, N-[5-(2-Chloro-5-trifluoromethyl-phenyl)-thiazol-2-yl]-2,6-difluoro-benzamide] | 50 to 100 nM | 

Row | SMILES | IC50 (Jurkat, 20 h) | IC50 (20 hours)
21 | Cc1nc(NC(=O)c2c(F)cccc2F)sc1-c1cc(Br)sc1Br [Compound 61, N-(5-(2,5-Dibromothiophen-3-yl)-4-methylthiazol-2-yl)-2,6-difluorobenzamide] | 200 to 500 nM | 
22 | O=C(Nc1c(F)cccc1F)c1ncc(-c2cc(C(F)(F)F)ccc2Cl)s1 [Compound 129, 5-(2-chloro-5-(trifluoromethyl)phenyl)-N-(2,6-difluorophenyl)thiazole-2-carboxamide] | < 30 nM | 
23 | Cc1cnccc1NC(=O)c1ncc(-c2cc(-c3ncco3)ccc2C)s1 [Compound 132, 5-(2-methyl-5-(oxazol-2-yl)phenyl)-N-(3-methylpyridin-4-yl)thiazole-2-carboxamide] | > 1000 nM | 
24 | NC(=O)c1nc(NC(=O)c2c(F)cccc2F)sc1-c1cccc(C(F)(F)F)c1 [Compound 97, 2-(2,6-Difluorobenzamido)-5-(3-(trifluoromethyl)phenyl)thiazole-4-carboxamide] | > 1000 nM | 
25 | Cn1nnc(-c2cccc(-c3cnc(NC(=O)c4c(F)cccc4F)s3)c2)n1 [Compound 7, 2,6-Difluoro-N-{5-[3-(2-methyl-2H-tetrazol-5-yl)-phenyl]-thiazol-2-yl}-benzamide] | > 1000 nM | 
26 | CCOC(=O)c1nc(-c2nc(NC(=O)c3c(F)cccc3F)sc2-c2cccc(C(F)(F)F)c2)c(C)s1 [Compound 96, Ethyl 2′-(2,6-difluorobenzamido)-5-methyl-5′-(3-(trifluoromethyl)phenyl)-4,4′-bithiazole-2-carboxylate] | > 1000 nM | 
27 | O=Cc1nc(NC(=O)c2c(F)cccc2F)sc1-c1cccc(C(F)(F)F)c1 [Compound 67, 2,6-Difluoro-N-(4-formyl-5-(3-(trifluoromethyl)phenyl)thiazol-2-yl)benzamide] | > 1000 nM | 
28 | Cc1noc(-c2nc(NC(=O)c3c(F)cccc3F)sc2-c2cccc(C(F)(F)F)c2)n1 [Compound 92, 2,6-difluoro-N-(4-(3-methyl-1,2,4-oxadiazol-5-yl)-5-(3-(trifluoromethyl)phenyl)thiazol-2-yl)benzamide] | 200 to 500 nM | 
29 | O=C(Nc1c(F)cccc1F)c1cnc(-c2cccc(-c3ncco3)c2)s1 [Compound 124, N-(2,6-difluorophenyl)-2-(3-(oxazol-2-yl)phenyl)thiazole-5-carboxamide] | > 1000 nM | 
30 | Cc1cnccc1NC(=O)c1ncc(-c2cc(-c3nccs3)ccc2C)s1 [Compound 133, 5-(2-methyl-5-(thiazol-2-yl)phenyl)-N-(3-methylpyridin-4-yl)thiazole-2-carboxamide] | > 1000 nM | 
31 | O=C(Nc1nc(Cl)c(-c2cccc(C(F)(F)F)c2)s1)c1c(F)cccc1F [Compound 103, N-(4-Chloro-5-(3-(trifluoromethyl)phenyl)thiazol-2-yl)-2,6-difluorobenzamide] | 200 to 500 nM | 
32 | Cc1nc(NC(=O)c2c(F)cccc2F)sc1-c1ccc2c(c1)OCO2 [Compound 57, N-(5-(Benzo[d][1,3]dioxol-5-yl)-4-methylthiazol-2-yl)-2,6-difluorobenzamide] | 200 to 500 nM | 
33 | O=C(O)c1nc(NC(=O)c2c(F)cccc2F)sc1-c1cccc(C(F)(F)F)c1 [Compound 66, 2-(2,6-difluorobenzamido)-5-(3-(trifluoromethyl)phenyl)thiazole-4-carboxylic acid] | > 1000 nM | 
34 | Cc1ccc(-c2nnco2)cc1-c1ncc(C(=O)Nc2c(F)cccc2F)s1 [Compound 128, N-(2,6-difluorophenyl)-2-(2-methyl-5-(1,3,4-oxadiazol-2-yl)phenyl)thiazole-5-carboxamide] | 200 to 500 nM | 
35 | O=C(Nc1c(F)cccc1F)c1cnc(-c2cccc(C(F)(F)F)c2)s1 [Compound 123, N-(2,6-difluorophenyl)-2-(3-(trifluoromethyl)phenyl)thiazole-5-carboxamide] | > 1000 nM | 
36 | Cc1nc(C(=O)Nc2c(F)cccc2F)sc1-c1cccc(-c2ncco2)c1 [Compound 116, N-(2,6-difluorophenyl)-4-methyl-5-(3-(oxazol-2-yl)phenyl)thiazole-2-carboxamide] | 50 to 100 nM | 
37 | COC(=O)c1cccc(-c2sc(NC(=O)c3c(F)cccc3F)nc2C)c1 [Compound 8, 3-[2-(2,6-Difluoro-benzoylamino)-4-methyl-thiazol-5-yl]-benzoic acid methyl ester] | 200 to 500 nM | 
38 | O=C(Nc1nc(-c2cc[nH]n2)c(-c2cccc(C(F)(F)F)c2)s1)c1c(F)cccc1F [Compound 100, N-(4-(1H-Pyrazol-3-yl)-5-(3-(trifluoromethyl)phenyl)thiazol-2-yl)-2,6-difluorobenzamide] | 200 to 500 nM | 
39 | O=C(Nc1nc(-c2ccon2)c(-c2cccc(C(F)(F)F)c2)s1)c1c(F)cccc1F [Compound 106, 2,6-Difluoro-N-(4-(isoxazol-3-yl)-5-(3-(trifluoromethyl)phenyl)thiazol-2-yl)benzamide] | 100 to 200 nM | 
